# Tested on: H446 spheroids
# Assay: H446 spheroid growth, IncuCyte Live-Cell Analysis
# Assay type: cell-based
# Conditions: LB100 20 μM, up to 72 hours
# Description: FIGS. 2A-2H depict the effect of LB-100 on H446 spheroid growth. FIG. 2A: Morphology of a single spheroid of H446 cells on days one and nine. Spheroids grow continuously and H&E staining is represented. FIG. 2B: Spheroid's growth in response to LB-100 treatment was recorded with IncuCyte Live-Cell Analysis System. FIG. 2C: Cytotoxicity effect of LB100 was recorded with IncuCyte Live-Cell Analysis System in the presence of LB-100 and IncuCyte Cytotox reagent in green fluorescence. […] Scale bar 100 μm. (FIGS. 2E and 2G). Effect of LB100 and carboplatin alone or in combination was monitored using IncuCyte Live Cell system for 70 h.
# We further investigated the effect of LB100 and the chemotherapy drugs on spheroids formed by SCLC cells. Three cell lines H524, H69 and H446 were tested. The H524 and H69 cells formed large soft clumps in low-attachment 96 well plates. […] H446 spheroids treated with or without 20 μM LB100 were imaged in brightfield (BF) and using green fluorescence over 72 hours. The size of the spheroids was measured using an automated software algorithm that masked the largest BF in the field of view (label-free, real-time live cell assay for spheroids: IncuCyte bright-field analysis). […]
# H446 cells were plated at a density of 10,000 cells per well and spheroid allowed to form (72-hours). […] Spheroids were imaged every 4 hours for 6 days and analyzed using the IncuCyte ZOOM software.
structure (smiles),measurement,value
"C[NH+]1CCN(C(=O)C2C(C(=O)O)[C@H]3CC[C@@H]2O3)CC1 (stereo in doubt) [LB-100, 3-[(4-Methylpiperazin-1-yl)carbonyl]-7-oxabicyclo[2.2.1]heptane-2-carboxylic acid]",spheroid size (bright-field analysis),spheroid shrinkage

# Reference: patent US20230065158A1, “OXABICYCLOHEPTANES FOR TREATMENT OF SMALL CELL LUNG CANCER” (Lixte Biotechnology, Inc., priority 2021, published 2023)
